Source: ChEMBL document CHEMBL1201862, “PubChem BioAssay data set” (2004)
Calls of active or inactive are those of the source.

What was measured:
[1] = target: Luciferin 4-monooxygenase (Photinus pyralis, UniProt P08659); assay: Counter Screen for Luciferase-based Assay Positives. [Related pubchem assays: 620, 618, 411 ]
HT-1080 = assay: cytotoxicity in HT1080 fibrosarcoma cells, cell-based, fluorescence readout (AID 620); type: functional; details: Homo sapiens
[2] = NIH-3T3 fibroblast cytotoxicity, dose response, cytotoxicity control, cell-based, fluorescence, Alamar Blue, secondary assay (AID 2327); type: functional;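 also: NIH-3T3 mouse fibroblasts cultured with fluconazole at 8 µg/mL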
HEK293 = assay: Fluorescence-based counterscreen for potentiators or agonists of NPY-Y2: cell-based high-throughput dose response assay to identify inhibitors of cyclic nucleotide gated ion channel (CNGC) activity. In this assay, the parental HEK293 cell line transfected with a cyclic-nucleotide gated ion channel (CNGC)-based cAMP sensor is used to measure inhibition of isoproterenol-induced CNGC activity by test compound.; type: functional; details: Homo sapiens;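 also: stimulus is 1 µM isoproterenol at EC100 plus PDE inhibitor Ro 20-1724 at 25 µM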
[3] = target: T1, Neuropeptide Y receptor type 2 (Homo sapiens, UniProt P49146); assay: Fluorescence-based cell-based high-throughput dose response assay for agonists of NPY-Y2. [Related pubchem assays: 1703 (Screening assay (CNGC inhibitors).), 1359 (Screening assay (NPY-Y2 potentiators or agonists).), 1304 (Screening assay (NPY-Y1 potentiators or agonists).), 1710 (Screening assay (NPY-Y2 agonists).), 1791 (Summary AID.)]; type: functional
T1 sequence (P49146 whole entry): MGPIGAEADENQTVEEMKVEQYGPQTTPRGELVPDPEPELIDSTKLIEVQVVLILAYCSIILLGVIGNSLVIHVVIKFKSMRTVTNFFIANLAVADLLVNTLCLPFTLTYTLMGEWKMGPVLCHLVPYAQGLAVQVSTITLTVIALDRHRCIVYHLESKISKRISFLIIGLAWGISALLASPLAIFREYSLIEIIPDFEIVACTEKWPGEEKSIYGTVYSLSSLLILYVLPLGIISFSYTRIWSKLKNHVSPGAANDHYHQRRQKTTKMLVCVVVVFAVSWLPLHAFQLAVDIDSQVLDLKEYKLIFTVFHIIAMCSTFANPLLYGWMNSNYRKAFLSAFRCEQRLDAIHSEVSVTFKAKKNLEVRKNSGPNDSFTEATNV

[4] = C. albicans growth with fluconazole, confirmation, fluorescence, retest (AID 2467); type: functional, cell-based
[5] = target: T2, Neuropeptide Y receptor type 1 (Homo sapiens, UniProt P25929); assay: Fluorescence-based counterscreen for agonists of NPY-Y2: cell-based high-throughput dose response assay for agonists of NPY-Y1.; type: functional
T2 sequence (P25929 whole entry): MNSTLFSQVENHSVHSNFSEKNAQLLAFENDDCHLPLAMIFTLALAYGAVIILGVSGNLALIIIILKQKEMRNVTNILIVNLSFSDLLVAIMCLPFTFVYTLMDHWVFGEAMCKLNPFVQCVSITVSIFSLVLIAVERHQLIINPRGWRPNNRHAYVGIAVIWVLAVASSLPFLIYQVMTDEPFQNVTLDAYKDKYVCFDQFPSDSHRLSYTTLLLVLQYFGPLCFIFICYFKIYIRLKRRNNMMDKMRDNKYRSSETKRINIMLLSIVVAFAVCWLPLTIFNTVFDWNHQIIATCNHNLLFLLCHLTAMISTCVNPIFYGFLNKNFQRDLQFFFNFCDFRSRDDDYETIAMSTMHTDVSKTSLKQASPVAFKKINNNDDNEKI

[6] = target: T3, Calpain-2 catalytic subunit (Sus scrofa, UniProt P43367); assay: pig calpain II inhibitor potency, dose response, biochemical, fluorogenic peptide substrate (AID 1420); type: functional
T3 sequence (P43367 whole entry): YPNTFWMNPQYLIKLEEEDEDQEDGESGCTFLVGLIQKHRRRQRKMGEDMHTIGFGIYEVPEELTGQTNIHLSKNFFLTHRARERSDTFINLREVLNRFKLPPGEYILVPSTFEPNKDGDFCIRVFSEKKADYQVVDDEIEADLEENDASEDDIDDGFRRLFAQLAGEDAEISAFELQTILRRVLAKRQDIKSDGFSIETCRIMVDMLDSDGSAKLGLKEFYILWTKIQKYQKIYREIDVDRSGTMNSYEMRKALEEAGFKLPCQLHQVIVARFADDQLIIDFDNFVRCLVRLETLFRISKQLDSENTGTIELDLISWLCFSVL

[7] = target: T4, Heat shock factor protein 1 (Mus musculus, UniProt P38532); assay: HSF1 potentiators in luciferase reporter cells, confirmation, cell-based, NIH3T3, luminescence, dose retest (AID 435004); type: functional;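 also: stress induced by proteasome inhibitor MG132 added 30 min after compound; luciferase reporter driven by HSF1 response element in NIH3T3 cells; actives raise luminescence as potentiators of the MG132 stress response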
T4 sequence (P38532 whole entry): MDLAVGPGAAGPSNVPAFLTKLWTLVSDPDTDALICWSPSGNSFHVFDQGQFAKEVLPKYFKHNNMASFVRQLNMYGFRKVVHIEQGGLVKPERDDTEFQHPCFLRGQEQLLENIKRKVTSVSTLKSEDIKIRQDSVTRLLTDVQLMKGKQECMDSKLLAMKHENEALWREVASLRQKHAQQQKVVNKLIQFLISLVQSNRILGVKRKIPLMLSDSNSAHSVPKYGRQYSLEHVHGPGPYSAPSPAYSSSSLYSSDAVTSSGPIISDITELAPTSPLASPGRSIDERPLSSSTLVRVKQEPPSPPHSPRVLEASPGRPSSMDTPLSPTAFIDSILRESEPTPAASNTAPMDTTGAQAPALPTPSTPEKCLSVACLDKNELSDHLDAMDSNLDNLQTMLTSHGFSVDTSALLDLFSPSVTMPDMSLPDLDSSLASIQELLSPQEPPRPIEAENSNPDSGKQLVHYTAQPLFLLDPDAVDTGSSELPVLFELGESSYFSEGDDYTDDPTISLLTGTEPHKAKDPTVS

[8] = test system: Streptococcus sp. 'group A'; assay: growth inhibition of control SK(-) GAS strain, dose response, counter-screen for streptokinase expression inhibitor project, luminescence, kanamycin, BacTiterGlo, confirmation (AID 1900); type: functional, organism-based
[9] = target: T5, Alkaline phosphatase, tissue-nonspecific isozyme (Homo sapiens, UniProt P05186)
T5 sequence (P05186 whole entry): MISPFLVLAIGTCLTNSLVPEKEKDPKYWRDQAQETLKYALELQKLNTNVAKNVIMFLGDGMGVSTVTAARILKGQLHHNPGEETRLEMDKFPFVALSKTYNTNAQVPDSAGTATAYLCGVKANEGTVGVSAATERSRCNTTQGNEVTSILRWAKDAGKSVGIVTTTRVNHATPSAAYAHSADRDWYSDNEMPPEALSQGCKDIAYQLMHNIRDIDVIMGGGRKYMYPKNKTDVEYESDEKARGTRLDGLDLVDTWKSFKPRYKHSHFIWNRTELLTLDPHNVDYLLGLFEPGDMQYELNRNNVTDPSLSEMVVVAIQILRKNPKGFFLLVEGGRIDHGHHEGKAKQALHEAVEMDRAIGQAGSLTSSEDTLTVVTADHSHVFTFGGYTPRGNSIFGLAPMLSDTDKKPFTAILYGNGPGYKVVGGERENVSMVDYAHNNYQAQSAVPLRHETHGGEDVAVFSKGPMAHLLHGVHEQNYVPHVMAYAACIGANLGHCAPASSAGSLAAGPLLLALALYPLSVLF

Streptokinase A = target: T6, Streptokinase A (Streptococcus pyogenes serotype M1, UniProt P10520); assay: S. pyogenes streptokinase expression inhibitors, potency, dose response, plasminogen activation absorbance, OD405 (AID 1914); type: functional, Streptococcus pyogenes M1 GAS;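 also: secreted streptokinase activity via plasminogen activation per viability signal from cell pellet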
T6 sequence (P10520 whole entry): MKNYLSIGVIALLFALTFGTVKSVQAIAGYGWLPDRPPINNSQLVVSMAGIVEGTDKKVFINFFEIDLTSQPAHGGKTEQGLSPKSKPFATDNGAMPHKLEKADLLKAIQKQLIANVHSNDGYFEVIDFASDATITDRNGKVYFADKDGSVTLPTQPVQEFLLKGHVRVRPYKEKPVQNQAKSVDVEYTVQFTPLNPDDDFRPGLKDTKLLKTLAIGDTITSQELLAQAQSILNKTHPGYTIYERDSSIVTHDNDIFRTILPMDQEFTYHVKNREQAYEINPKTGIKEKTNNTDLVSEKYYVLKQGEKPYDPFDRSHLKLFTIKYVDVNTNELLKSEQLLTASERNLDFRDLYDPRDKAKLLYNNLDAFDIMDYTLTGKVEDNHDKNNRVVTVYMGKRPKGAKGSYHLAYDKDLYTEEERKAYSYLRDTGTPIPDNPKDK

Streptococcus = assay: Group A Streptococcus viability loss, dose response, counter-screen for streptokinase expression inhibitor project, luminescence, BacTiterGlo (AID 1915); type: functional, organism-based;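 also: potency for reduction of bacterial viability or growth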
[10] = target: T7, Ubiquitin-conjugating enzyme E2 N (Homo sapiens, UniProt P61088); type: functional;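 also: Dose-response confirmation in a TR-FRET assay detecting UBC13-driven polyubiquitin chain formation, inhibition measured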
T7 sequence (P61088 whole entry): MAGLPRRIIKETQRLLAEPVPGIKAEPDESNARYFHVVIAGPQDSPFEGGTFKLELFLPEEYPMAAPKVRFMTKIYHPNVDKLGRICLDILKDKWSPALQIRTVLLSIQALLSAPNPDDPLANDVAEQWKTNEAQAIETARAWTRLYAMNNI

[11] = M. tuberculosis H37Rv growth inhibitors, H37Rv strain (AID 1626); type: functional
SUMO-activating enzyme [12] = target: T8, SUMO-activating enzyme (Homo sapiens, UniProt Q9UBT2); assay: SUMOylation inhibitor hit validation, confirmation, SUMOylation inhibitor project, biochemical, AlphaScreen (AID 2018); type: functional
SUMO-activating enzyme [13] = target: T8, SUMO-activating enzyme; assay: inhibitors of in vitro SUMOylation cascade, primary screen, biochemical, HTRF, uHTS (AID 2006); type: protein-complex assay
[14] = target: Induced myeloid leukemia cell differentiation protein Mcl-1 (Homo sapiens, UniProt Q07820); assay: MCL1-BIM BH3 interaction inhibitors, dose response, biochemical, fluorescence polarization, BIM-BH3 peptide, 1536-well (AID 2217)
Bcl-2-like protein 1 = Bcl-2-like protein 1 (Homo sapiens, UniProt Q07817); assay: BCL-XL inhibitors, dose response, selectivity assay for MCL1 inhibitor project, biochemical, fluorescence polarization, 1536-well (AID 2218)
Estrogen receptor beta [15] = target: T9, Estrogen receptor beta (Homo sapiens, UniProt Q92731);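 also: recombinant ER-beta bound to coactivator SRC1 peptide in presence of estradiol agonist; inhibitors block coactivator peptide binding and lower the FRET signal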
Estrogen receptor beta [16] = target: T9, Estrogen receptor beta; assay: ERβ–SRC-3 coactivator interaction inhibitors, confirmation, orthogonal assay, biochemical, ELISA, streptavidin-HRP readout (AID 1060)
[17] = target: T10, Carboxy-terminal domain RNA polymerase II polypeptide A small phosphatase 1 (Homo sapiens, UniProt Q9GZU7); assay: inhibitors of CTDSP1, concentration-response testing, biochemical assay, absorbance-based, actives from ultra-high-throughput screening (AID 540297); type: functional
T10 sequence (Q9GZU7 whole entry): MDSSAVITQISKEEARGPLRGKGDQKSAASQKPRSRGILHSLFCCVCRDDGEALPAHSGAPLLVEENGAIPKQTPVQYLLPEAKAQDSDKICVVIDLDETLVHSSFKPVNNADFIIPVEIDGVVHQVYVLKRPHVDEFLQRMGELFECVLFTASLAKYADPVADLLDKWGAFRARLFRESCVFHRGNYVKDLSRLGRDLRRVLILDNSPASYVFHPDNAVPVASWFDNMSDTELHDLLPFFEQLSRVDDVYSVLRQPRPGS

Aspartyl aminopeptidase = Aspartyl aminopeptidase (Plasmodium falciparum 3D7, UniProt Q8I2J3)
Procathepsin L = Procathepsin L (Homo sapiens, UniProt P07711)
[18] = target: Epstein-Barr nuclear antigen 1 (Epstein-Barr virus (strain B95-8) (HHV-4) (Human herpesvirus 4), UniProt P03211); assay: EBNA-1 inhibitors, dose response, biochemical, fluorescence polarization, 1536-well (AID 2381); set-up: species or system human gammaherpesvirus 4;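 also: fluorescence polarization of a Cy5 DNA probe bound by EBNA-1 protein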
[19] = target: Lytic switch protein BZLF1 (Epstein-Barr virus (strain B95-8) (HHV-4) (Human herpesvirus 4), UniProt P03206); assay: EBV ZTA inhibitors, dose response, counter-screen for EBNA-1 inhibitor project, biochemical, fluorescence polarization, Epstein-Barr virus, 1536-well (AID 2377); set-up: species or system human gammaherpesvirus 4;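 also: fluorescence polarization of Cy5-labelled ZRE DNA probe bound by purified Zta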
Cytochrome P450 2D6 = Cytochrome P450 2D6 (Homo sapiens, UniProt P10635);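 also: CYP2D6 member of a cytochrome P450 panel assay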
Sequence of Cytochrome P450 2D6 (P10635 whole entry): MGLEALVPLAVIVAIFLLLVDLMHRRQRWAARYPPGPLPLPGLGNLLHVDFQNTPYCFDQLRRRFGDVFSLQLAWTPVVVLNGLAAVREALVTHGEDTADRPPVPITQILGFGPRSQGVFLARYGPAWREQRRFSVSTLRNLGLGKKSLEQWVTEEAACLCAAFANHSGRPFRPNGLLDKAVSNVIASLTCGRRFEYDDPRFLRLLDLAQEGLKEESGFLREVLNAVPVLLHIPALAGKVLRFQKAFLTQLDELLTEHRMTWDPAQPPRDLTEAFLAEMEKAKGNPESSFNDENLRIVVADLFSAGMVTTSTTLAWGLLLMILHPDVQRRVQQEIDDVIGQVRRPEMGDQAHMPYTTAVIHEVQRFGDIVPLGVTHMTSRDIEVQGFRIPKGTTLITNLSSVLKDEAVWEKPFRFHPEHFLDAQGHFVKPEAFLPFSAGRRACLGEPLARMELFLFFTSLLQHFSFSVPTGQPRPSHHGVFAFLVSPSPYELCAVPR

Sequence of Lytic switch protein BZLF1 (P03206 whole entry): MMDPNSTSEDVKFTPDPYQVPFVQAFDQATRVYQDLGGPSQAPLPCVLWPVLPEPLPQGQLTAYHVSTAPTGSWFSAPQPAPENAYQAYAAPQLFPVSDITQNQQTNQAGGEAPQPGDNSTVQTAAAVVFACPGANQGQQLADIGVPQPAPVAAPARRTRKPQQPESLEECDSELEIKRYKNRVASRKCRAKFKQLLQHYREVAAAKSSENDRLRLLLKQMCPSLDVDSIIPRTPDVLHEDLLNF
Sequence of Procathepsin L (P07711 whole entry): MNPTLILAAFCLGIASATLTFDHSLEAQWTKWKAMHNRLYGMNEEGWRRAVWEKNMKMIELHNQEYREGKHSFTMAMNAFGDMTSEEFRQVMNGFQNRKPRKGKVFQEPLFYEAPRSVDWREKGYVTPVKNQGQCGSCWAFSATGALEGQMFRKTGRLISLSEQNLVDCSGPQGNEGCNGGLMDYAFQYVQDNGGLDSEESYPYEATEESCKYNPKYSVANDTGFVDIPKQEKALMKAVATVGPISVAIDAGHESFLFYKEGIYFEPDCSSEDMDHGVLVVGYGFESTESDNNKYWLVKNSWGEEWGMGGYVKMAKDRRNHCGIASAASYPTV
Sequence of Aspartyl aminopeptidase (Q8I2J3 whole entry): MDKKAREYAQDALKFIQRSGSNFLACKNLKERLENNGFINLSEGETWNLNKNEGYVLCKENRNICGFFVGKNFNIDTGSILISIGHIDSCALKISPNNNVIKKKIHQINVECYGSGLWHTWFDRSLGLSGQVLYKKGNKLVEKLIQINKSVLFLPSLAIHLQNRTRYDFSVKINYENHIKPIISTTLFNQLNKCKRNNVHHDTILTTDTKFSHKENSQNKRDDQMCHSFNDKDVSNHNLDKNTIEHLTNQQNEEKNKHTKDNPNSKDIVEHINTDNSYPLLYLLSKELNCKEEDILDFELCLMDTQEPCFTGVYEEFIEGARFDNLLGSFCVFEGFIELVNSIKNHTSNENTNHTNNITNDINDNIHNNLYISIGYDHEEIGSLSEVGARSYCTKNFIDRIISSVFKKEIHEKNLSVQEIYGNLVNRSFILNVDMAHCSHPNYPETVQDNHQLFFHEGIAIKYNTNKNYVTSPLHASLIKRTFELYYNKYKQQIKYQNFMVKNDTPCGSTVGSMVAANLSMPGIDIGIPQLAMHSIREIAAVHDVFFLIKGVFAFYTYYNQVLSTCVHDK
T8 sequence (Q9UBE0 whole entry): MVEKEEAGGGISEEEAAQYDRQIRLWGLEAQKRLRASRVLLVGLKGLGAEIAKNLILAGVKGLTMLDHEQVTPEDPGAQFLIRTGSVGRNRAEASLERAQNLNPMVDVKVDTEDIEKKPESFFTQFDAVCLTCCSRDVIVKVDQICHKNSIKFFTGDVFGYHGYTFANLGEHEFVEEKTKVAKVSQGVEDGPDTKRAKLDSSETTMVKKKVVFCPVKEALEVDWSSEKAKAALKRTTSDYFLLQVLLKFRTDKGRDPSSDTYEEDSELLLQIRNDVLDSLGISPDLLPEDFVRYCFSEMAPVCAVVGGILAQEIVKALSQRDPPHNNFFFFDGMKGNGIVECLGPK
T8 sequence (Q9UBT2 whole entry): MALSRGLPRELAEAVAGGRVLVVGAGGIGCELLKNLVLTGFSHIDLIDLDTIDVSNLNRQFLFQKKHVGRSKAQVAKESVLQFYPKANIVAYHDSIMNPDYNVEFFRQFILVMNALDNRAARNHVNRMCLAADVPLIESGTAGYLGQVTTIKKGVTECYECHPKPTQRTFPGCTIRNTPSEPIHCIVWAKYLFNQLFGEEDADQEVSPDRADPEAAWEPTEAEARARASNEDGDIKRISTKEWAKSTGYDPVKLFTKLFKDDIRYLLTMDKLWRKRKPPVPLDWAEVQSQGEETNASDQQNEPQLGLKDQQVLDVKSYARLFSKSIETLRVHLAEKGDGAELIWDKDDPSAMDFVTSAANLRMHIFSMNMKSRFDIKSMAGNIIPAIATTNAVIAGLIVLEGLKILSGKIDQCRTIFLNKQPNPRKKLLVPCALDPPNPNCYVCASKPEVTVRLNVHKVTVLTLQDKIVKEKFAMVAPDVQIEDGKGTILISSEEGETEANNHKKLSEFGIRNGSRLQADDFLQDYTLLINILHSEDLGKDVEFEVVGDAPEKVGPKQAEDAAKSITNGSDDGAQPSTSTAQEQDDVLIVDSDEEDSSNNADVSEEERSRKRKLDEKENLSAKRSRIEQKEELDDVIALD
Sequence of Epstein-Barr nuclear antigen 1 (P03211 whole entry): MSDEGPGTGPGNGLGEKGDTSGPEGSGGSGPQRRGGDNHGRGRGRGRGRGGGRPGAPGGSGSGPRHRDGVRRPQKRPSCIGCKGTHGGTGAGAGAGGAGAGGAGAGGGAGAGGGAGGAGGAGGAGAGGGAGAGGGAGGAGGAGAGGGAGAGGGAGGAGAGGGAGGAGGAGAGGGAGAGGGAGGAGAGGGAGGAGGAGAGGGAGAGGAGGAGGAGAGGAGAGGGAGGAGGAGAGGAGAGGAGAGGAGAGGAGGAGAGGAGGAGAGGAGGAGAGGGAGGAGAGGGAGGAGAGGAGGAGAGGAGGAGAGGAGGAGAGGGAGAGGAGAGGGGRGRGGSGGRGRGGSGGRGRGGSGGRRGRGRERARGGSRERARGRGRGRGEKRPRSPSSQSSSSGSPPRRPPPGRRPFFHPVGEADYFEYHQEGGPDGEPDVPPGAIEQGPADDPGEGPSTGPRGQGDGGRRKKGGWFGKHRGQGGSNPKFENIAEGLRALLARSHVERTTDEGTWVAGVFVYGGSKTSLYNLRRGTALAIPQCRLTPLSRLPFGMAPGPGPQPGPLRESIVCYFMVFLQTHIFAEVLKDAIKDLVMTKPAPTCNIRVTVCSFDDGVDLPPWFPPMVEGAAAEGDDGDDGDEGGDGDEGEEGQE
T9 sequence (Q92731 whole entry): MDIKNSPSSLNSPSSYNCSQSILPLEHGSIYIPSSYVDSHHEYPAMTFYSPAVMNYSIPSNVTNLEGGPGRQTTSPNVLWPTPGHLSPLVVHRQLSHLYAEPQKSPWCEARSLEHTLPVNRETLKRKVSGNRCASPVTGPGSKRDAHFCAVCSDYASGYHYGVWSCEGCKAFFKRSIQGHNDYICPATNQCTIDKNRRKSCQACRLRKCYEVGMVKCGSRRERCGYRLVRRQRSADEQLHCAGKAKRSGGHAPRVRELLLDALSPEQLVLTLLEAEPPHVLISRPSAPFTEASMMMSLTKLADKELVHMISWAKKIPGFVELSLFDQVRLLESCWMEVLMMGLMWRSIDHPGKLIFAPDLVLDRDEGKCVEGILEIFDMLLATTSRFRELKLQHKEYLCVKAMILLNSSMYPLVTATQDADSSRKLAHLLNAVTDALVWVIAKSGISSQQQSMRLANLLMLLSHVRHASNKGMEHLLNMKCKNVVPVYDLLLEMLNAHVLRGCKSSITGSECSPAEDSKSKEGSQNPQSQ
Sequence of Bcl-2-like protein 1 (Q07817 whole entry): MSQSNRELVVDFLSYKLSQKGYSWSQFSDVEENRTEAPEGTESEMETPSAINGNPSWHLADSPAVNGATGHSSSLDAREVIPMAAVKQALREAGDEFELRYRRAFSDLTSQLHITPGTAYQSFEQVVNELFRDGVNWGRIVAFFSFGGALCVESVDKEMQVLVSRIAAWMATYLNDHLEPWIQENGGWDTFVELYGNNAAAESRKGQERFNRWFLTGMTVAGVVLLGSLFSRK
Sequence of Luciferin 4-monooxygenase (P08659 whole entry): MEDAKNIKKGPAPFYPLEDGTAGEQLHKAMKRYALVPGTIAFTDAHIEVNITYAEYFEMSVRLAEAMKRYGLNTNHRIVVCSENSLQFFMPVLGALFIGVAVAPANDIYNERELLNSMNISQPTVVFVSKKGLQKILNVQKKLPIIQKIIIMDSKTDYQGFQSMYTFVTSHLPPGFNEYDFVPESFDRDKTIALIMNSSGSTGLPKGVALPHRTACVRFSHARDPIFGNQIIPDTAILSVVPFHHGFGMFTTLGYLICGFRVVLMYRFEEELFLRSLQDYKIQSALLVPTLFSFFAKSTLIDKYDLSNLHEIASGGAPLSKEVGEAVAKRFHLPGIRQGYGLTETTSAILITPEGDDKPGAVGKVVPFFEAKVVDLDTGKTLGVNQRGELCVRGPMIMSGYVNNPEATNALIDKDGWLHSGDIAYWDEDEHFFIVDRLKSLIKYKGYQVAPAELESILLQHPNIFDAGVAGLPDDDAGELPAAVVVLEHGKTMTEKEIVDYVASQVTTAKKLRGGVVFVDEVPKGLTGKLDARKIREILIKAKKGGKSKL
Sequence of Induced myeloid leukemia cell differentiation protein Mcl-1 (Q07820 whole entry): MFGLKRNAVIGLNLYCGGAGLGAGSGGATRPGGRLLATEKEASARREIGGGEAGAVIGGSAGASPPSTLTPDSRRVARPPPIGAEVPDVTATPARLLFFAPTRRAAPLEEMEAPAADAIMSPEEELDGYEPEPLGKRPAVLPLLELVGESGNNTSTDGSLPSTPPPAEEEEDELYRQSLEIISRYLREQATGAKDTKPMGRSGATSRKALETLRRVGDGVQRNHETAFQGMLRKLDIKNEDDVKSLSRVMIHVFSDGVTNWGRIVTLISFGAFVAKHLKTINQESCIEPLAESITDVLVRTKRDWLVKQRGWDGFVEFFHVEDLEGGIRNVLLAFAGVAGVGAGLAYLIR

Clc1ccccc1OCc1nc(-c2ccccn2)no1
EC50 [1]: > 100 µM (not active) | EC50 (HT-1080): > 50 µM (not active)

O=C(COc1ccc(Cl)cc1)Nc1ncc([N+](=O)[O-])s1
EC50 [2]: 36 µM (active) | EC50 (HEK293): > 35.4 µM (not active) | EC50 [3]: > 35.4 µM (not active) | EC50 [4]: 0.166 µM (active) | EC50 [5]: 33.8 µM (not active) | IC50 [6]: 24.9 µM (not active) | EC50 [7]: 0.382 µM (active)

COc1ccc(Cl)cc1NC(=O)CN1CCC(n2nnc3cc(C)ccc32)CC1
EC50 [8]: 12.2 µM (active) | EC50 [9]: 70.6 µM (not active) | EC50 (Streptokinase A): 26.4 µM (active) | EC50 (Streptococcus): 93.4 µM (active) | IC50 [10]: > 20 µM (inactive)

COc1ccc(N2CCN(c3nc(-c4cccs4)nc4ccccc34)CC2)cc1
IC50 [11]: > 100 µM (active)

Cc1ccc(C(=O)O)cc1-c1ccc(/C=C2\SC(=O)N(CC(=O)Nc3ccc4c(c3)OCO4)C2=O)o1
IC50 (SUMO-activating enzyme [12]): 4.35 µM (active) | IC50 (SUMO-activating enzyme [13]): 10.3 µM (active) | IC50 [14]: > 4.03 µM (active) | IC50 (Bcl-2-like protein 1): > 109 µM (not active)

CCOC(=O)C1CCCN(C(=O)c2ccc(CS(=O)(=O)c3ccc(C)cc3)o2)C1 (stereo not drawn)
IC50 (Estrogen receptor beta [15]): 13.7 µM (active) | IC50 (Estrogen receptor beta [16]): < 0.023 µM (not active) | IC50 [17]: 7.41 µM (active)

Nc1nncn1C(=O)CCCOc1ccc(Cl)cc1Cl
IC50 (Aspartyl aminopeptidase): 2.6 µM (active) | IC50 (Procathepsin L): > 59.6 µM (not active)

CCN(CC)S(=O)(=O)c1ccc(C(=O)Nn2cnnc2)cc1
IC50 (Aspartyl aminopeptidase): 1.07 µM (active) | IC50 (Procathepsin L): > 59.6 µM (not active)

Cc1ccc(C(=O)Nc2nc3ccc(S(C)(=O)=O)cc3s2)cc1C
IC50 [18]: 4.48 µM (active) | IC50 [19]: > 111 µM (not active)

CC(=O)OCCCN1c2ccccc2Nc2nnc(-c3ccccc3)cc21
EC50 [9]: 71.8 µM (not active) | IC50 [11]: > 100 µM (active) | AC50 (Cytochrome P450 2D6): 15.8 µM (inconclusive)

Cc1cc(NC(=O)COC(=O)c2oc3c(ccc4ccccc43)c2C)no1
IC50 [18]: 9.17 µM (active) | IC50 [19]: > 111 µM (not active)
